Experimental data published in ChEMBL document CHEMBL1201862, “PubChem BioAssay data set” (2004).
Active and inactive are the calls of the source.

Experiments:
Cytochrome P450 2C9 = Cytochrome P450 2C9 (Homo sapiens, UniProt P11712)
Cytochrome P450 3A4 = Cytochrome P450 3A4 (Homo sapiens, UniProt P08684);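 further: CYP3A4 tested as one member of a cytochrome P450 panel screen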
[1] = target: T1, Heat shock factor protein 1 (Mus musculus, UniProt P38532); assay: enhancement of HSF1-driven luciferase signal – cell-based, NIH3T3, luminescence, dose retest, confirmation (AID 435004); assay type: functional;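 further: stress induced by proteasome inhibitor MG132 added 30 min after compound; luciferase reporter driven by HSF1 response element in NIH3T3 cells; actives raise luminescence as potentiators of the MG132 stress response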
T1 sequence (P38532 whole entry): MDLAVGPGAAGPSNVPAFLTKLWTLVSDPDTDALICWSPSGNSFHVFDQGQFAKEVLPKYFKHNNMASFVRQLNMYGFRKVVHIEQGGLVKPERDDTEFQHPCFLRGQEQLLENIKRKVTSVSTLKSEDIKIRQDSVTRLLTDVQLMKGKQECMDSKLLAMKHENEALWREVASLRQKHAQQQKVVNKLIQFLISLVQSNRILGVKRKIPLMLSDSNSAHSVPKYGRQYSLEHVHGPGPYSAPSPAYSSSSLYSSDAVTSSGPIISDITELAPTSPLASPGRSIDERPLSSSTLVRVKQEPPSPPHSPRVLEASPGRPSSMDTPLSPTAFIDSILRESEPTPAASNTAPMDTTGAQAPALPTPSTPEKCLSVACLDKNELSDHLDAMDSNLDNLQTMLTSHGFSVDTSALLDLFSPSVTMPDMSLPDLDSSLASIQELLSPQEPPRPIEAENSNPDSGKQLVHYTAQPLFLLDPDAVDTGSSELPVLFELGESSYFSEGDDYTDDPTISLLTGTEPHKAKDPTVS

Cytochrome P450 2C19 = Cytochrome P450 2C19 (Homo sapiens, UniProt P33261); assay: Cytochrome panel assay with activity outcomes. Panel member name: p450-cyp2c19 Compounds with AC50 equal or less than 10 uM are considered active; assay type: functional
Chain of Cytochrome P450 2C19 (P33261 whole entry): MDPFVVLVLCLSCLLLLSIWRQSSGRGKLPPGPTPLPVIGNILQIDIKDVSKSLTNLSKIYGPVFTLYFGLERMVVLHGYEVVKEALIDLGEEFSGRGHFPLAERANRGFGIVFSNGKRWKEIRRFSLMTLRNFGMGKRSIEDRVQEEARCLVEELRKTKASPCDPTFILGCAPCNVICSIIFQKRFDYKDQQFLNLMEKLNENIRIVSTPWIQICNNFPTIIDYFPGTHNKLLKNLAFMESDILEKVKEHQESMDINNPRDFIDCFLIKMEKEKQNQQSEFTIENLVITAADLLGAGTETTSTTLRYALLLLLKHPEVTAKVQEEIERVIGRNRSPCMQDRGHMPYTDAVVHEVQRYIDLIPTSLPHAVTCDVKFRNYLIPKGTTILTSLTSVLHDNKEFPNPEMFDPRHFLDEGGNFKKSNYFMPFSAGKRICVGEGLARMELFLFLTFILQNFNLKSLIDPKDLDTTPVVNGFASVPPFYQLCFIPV

[2] = luciferase reporter signal suppression in cells – H4 neuroglioma cells, luminescence, dose response (AID 1990); assay type: functional, cell-based
[3] = alpha-synuclein stem-loop luciferase translation blockers – H4 neuroglioma cells, luminescence, confirmation (AID 1988); assay type: functional, cell-based
[4] = Luminescence Cell-Based Dose Response HTS to Identify Inhibitors of 5'UTR Stem-Loop Driven Prion Protein mRNA Translation in H4 Neuroglioblastoma Cells. [Related pubchem assays: 1827 (Project Summary), 1813 (Primary HTS)]; assay type: functional
[5] = system: Streptococcus sp. 'group A'; assay: Streptococcus pyogenes SK(-)GAS viability under kanamycin – luminescence, BacTiterGlo, confirmation, counter-screen for streptokinase expression inhibitor project, dose response (AID 1900); assay type: functional, organism-based
Streptococcus = assay: GAS UMAA2166 growth inhibition – luminescence, BacTiterGlo, counter-screen for streptokinase expression inhibitor project, dose response (AID 1915); assay type: functional, organism-based;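 further: potency for reduction of bacterial viability or growth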
[6] = Trypanosoma cruzi growth suppression in host cells – NIH3T3 host cells, beta-gal luminescence, confirmation (AID 2044); assay type: functional, cell-based;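 further: intracellular parasites grown in NIH/3T3 mouse fibroblasts as host cells; luminescent beta-galactosidase reporter signal from transgenic T. cruzi replicating inside host cells; inhibitors lower the luminescence signal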
[7] = NIH3T3 cell viability loss – ATP luminescence, mouse fibroblasts, counter-screen, dose response (AID 2010); assay type: functional, cell-based;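 further: cells exposed to compound for about 90 hours before reading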

Chain of Cytochrome P450 2C9 (P11712 whole entry): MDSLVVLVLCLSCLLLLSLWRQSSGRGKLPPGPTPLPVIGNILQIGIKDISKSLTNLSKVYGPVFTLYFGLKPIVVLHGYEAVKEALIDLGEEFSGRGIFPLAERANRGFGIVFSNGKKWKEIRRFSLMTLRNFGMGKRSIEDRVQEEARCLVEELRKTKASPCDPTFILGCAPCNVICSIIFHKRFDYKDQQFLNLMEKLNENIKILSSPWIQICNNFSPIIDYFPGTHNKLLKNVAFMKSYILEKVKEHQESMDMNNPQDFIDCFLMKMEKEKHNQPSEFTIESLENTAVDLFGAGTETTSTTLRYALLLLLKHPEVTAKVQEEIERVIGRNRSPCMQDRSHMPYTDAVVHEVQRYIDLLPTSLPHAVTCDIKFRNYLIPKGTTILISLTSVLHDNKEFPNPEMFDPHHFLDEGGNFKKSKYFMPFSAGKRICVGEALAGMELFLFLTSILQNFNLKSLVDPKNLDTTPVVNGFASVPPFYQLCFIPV
Chain of Cytochrome P450 3A4 (P08684 whole entry): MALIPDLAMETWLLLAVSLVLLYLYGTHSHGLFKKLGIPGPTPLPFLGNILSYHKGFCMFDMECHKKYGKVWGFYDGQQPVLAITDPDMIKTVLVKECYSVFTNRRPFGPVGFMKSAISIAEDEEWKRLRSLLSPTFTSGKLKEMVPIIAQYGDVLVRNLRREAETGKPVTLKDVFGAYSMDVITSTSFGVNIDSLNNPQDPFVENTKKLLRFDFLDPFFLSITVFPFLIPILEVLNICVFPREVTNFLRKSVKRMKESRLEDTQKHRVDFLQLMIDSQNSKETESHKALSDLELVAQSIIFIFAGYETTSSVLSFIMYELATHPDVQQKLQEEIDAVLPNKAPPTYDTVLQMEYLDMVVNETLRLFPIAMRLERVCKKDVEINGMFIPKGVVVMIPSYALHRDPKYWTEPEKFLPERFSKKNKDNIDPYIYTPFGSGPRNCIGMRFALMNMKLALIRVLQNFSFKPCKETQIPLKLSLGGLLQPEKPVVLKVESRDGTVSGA

With `Cc1oc(C(C)(C)C)cc1C(=O)Nc1cccc(/C=C/C(=O)O)c1` the AC50 (Cytochrome P450 2C9) was 4.47 µM (inconclusive).

For `N#CCCn1c(=O)c(-c2cccs2)nc2cnc(OCc3ccccc3)nc21`, the AC50 (Cytochrome P450 2C9) was 1.58 µM (inconclusive).

For `O=C(Cc1ccccc1)NCCSCc1ccc(Cl)cc1`, the AC50 (Cytochrome P450 3A4) was 14.1 µM (inconclusive).

In the case of `CN1CC[C@@]2(CCCN(C(=O)c3cccn3C)C2)C1`, the AC50 (Cytochrome P450 3A4) is reported as 7.94 µM (inconclusive).

In the case of `N=c1sccn1CC(=O)Nc1cc(Cl)ccc1Oc1ccccc1`, the EC50 [1] is reported as > 260 µM (inactive).

In the case of `CC(=O)C1=C(O)C=C(c2ccco2)CC1c1ccco1` (stereo not drawn), the AC50 (Cytochrome P450 3A4) is reported as 20 µM (inconclusive) and the AC50 (Cytochrome P450 2C19; read-out: AC50) is reported as 2.24 µM (inconclusive).

With `COCCCNC(=O)c1c(NC(=O)c2cccs2)sc2c1CCCC2` the AC50 (Cytochrome P450 2C9) was 0.562 µM (inconclusive) and the AC50 (Cytochrome P450 2C19; read-out: AC50) was 4.47 µM (inconclusive).

With `COC(=O)c1ccc(COc2cccc3c2CCN(Cc2cccc(C)c2)C3=O)o1` the EC50 [2] was > 120 µM (not active), the EC50 [3] was 107 µM (active) and the EC50 [4] was > 120 µM (not active).

With `O=C1CCN(Cc2ccccc2)N1` the EC50 [1] was > 260 µM (inactive).

With `CCNc1ncc2nc(-c3ccccc3)c(=O)n(CCOC)c2n1` the AC50 (Cytochrome P450 2C9) was 20 µM (inconclusive), the AC50 (Cytochrome P450 3A4) was 31.6 µM (inconclusive) and the AC50 (Cytochrome P450 2C19; read-out: AC50) was 31.6 µM (inconclusive).

In the case of `CCn1c(SCC(=O)Nc2nc(C)c(C)s2)nnc1-c1cccnc1`, the EC50 [2] is reported as > 120 µM (not active), the EC50 [3] is reported as > 120 µM (not active) and the EC50 [4] is reported as > 120 µM (not active).

In the case of `Cc1cc(-c2c(C)[nH]n(-c3ccc(Cl)cc3)c2=O)[nH]n1`, the EC50 [5] is reported as 2.51 µM (active) and the EC50 (Streptococcus) is reported as > 150 µM (not active).

In the case of `Cc1cc(C)c(S(=O)(=O)N2CCN(c3ccc([N+](=O)[O-])c(NCc4ccco4)c3)CC2)c(C)c1`, the AC50 (Cytochrome P450 2C9) is reported as 0.562 µM (inconclusive) and the AC50 (Cytochrome P450 2C19; read-out: AC50) is reported as 0.708 µM (inconclusive).

With `CCOC(=O)CCCNC(=O)CCCNC(=O)C(c1ccccc1)c1ccccc1` the AC50 (Cytochrome P450 3A4) was 8.91 µM (inconclusive) and the AC50 (Cytochrome P450 2C19; read-out: AC50) was 14.1 µM (inconclusive).

With `CCc1cc2c(=O)c(-c3nc4ccccc4[nH]3)coc2cc1OC(=O)N1CCOCC1` the AC50 (Cytochrome P450 2C9) was 8.91 µM (inconclusive) and the AC50 (Cytochrome P450 3A4) was 5.01 µM (inconclusive).

In the case of `CCc1cc2c(nc1CC)CCN(CC/C(C)=N/OC[C@@H](C)[C@H](OCc1ccccc1)C(C)C)C2`, the AC50 (Cytochrome P450 3A4) is reported as 3.98 µM (inconclusive).

For `CCOc1ccccc1CN1CCN(Cc2cn(C)nc2-c2ccccc2)CC1CCO` (stereo not drawn), the EC50 [1] was > 260 µM (inactive).

For `N#CCn1c2ccccc2c2nc3ccccc3nc21`, the EC50 [2] was 23.3 µM (active), the EC50 [3] was > 120 µM (not active) and the EC50 [4] was > 120 µM (not active).

For `O=C1[C@H]2[C@H]3[C@H](O)[C@H](O)C/C(=N/OC[C@@H](O)COCc4ccco4)[C@@H]3CC[C@@H]2C(=O)N1c1cccc(Oc2ccccc2)c1`, the AC50 (Cytochrome P450 3A4) was 7.94 µM (inconclusive).

For `COc1ccc2[nH]cc(CCNc3ccnc(-c4ccccc4Cl)n3)c2c1`, the AC50 (Cytochrome P450 2C9) was 1 µM (inconclusive).

For `Cc1cc(-c2ccc(C(C)C)c(S(=O)(=O)NCCN3CCC(C)CC3)c2)on1`, the EC50 [1] was > 260 µM (inactive).

In the case of `CCC(=O)N1CCN(c2ccc(NC(=O)COc3ccc(C)cc3C)cc2)CC1`, the EC50 [1] is reported as > 260 µM (inactive).

With `COc1ccc(C(=O)N2CCC3(CCCN(CC(C)C)C3)CC2)cc1` the AC50 (Cytochrome P450 3A4) was 25.1 µM (inconclusive).

With `Cc1ccc(-c2nnc(N3CCN(C(=O)c4cccs4)CC3)c3ccccc23)cc1` the EC50 [2] was > 120 µM (not active), the EC50 [3] was 22 µM (active) and the EC50 [4] was > 120 µM (not active).

In the case of `COc1cc(C(=O)OCC(=O)Nc2cc(C)on2)cc(OC)c1OC`, the AC50 (Cytochrome P450 2C9) is reported as 0.0447 µM (inconclusive) and the AC50 (Cytochrome P450 3A4) is reported as 15.8 µM (inconclusive).

With `N=C(N)NS(=O)(=O)c1ccc(NC(=S)NC(=O)c2ccc(Br)cc2)cc1` the EC50 [1] was > 260 µM (inactive).

With `O=C(NCCN1Cc2ccccc2C1=O)c1cccs1` the EC50 [1] was > 260 µM (inactive).

With `COCCNC(=O)c1cccc(OC2CCN(Cc3ccc(Cl)c(F)c3)CC2)c1` the EC50 [1] was > 260 µM (inactive).

With `CC(C)NC(=O)N1CC[C@@]2(CCCN(S(C)(=O)=O)C2)C1` the AC50 (Cytochrome P450 2C9) was 25.1 µM (inconclusive) and the AC50 (Cytochrome P450 2C19; read-out: AC50) was 39.8 µM (inconclusive).

For `COC(=O)CN1C(=O)S/C(=C/c2ccc(N3CCCCC3)o2)C1=O`, the AC50 (Cytochrome P450 2C9) was 5.62 µM (inconclusive), the AC50 (Cytochrome P450 3A4) was 15.8 µM (inconclusive) and the AC50 (Cytochrome P450 2C19; read-out: AC50) was 5.62 µM (inconclusive).

With `Clc1ccc(CCNc2nc3ccccc3s2)cc1` the AC50 (Cytochrome P450 2C9) was 12.6 µM (inconclusive).

For `Cc1cccc(C)c1NC(=O)c1cc2c(=O)c3ccccc3oc2nc1C(F)(F)F`, the AC50 (Cytochrome P450 3A4) was 0.0501 µM (inconclusive) and the AC50 (Cytochrome P450 2C19) was “inconclusive”.

In the case of `CCN(C(=O)c1cccc(S(=O)(=O)N2CCCCC2)c1)C1CCS(=O)(=O)C1` (stereo not drawn), the EC50 [1] is reported as > 260 µM (inactive).

For `Clc1ccccc1-c1nc(NCc2cccs2)c2ccccc2n1`, the AC50 (Cytochrome P450 2C9) was 0.794 µM (inconclusive).

For `Cc1ccc2[nH]c(SCC(=O)Nc3cccc(S(=O)(=O)NC4=NCCCCC4)c3)nc2c1`, the EC50 [1] was > 260 µM (inactive).

In the case of `CCOCCCn1cnc2c3ccc(OC)cc3nc-2c1O`, the AC50 (Cytochrome P450 2C9) is reported as 39.8 µM (inconclusive).

In the case of `CC(=O)c1[nH]c(C)c(C(C)=O)c1C`, the AC50 (Cytochrome P450 3A4) is reported as 20 µM (inconclusive).

In the case of `COC(=O)C1=CN(Cc2ccc(OC)c(OC)c2)C=C(C(=O)OC)C1c1cccc(F)c1`, the EC50 [2] is reported as 15.1 µM (active), the EC50 [6] is reported as 156 nM (active) and the EC50 [3] is reported as 65.7 µM (active). The EC50 [4] was > 120 µM (not active) and the EC50 [7] was > 60 µM (not active).

With `Cc1cc(C)n(Cc2ccc(Cl)cc2Cl)c(=O)c1S(=O)(=O)c1ccccc1` the EC50 [1] was > 260 µM (inactive).

For `C/C(=N\Nc1nnc(-c2ccccc2)c(-c2ccccc2)n1)c1cccc([N+](=O)[O-])c1`, the AC50 (Cytochrome P450 3A4) was 35.5 µM (inconclusive) and the AC50 (Cytochrome P450 2C19; read-out: AC50) was 17.8 µM (inconclusive).

With `COC(=O)C1=C(C)N(CCc2c[nH]c3ccc(OC)cc23)C(=O)C1` the EC50 [2] was > 120 µM (not active), the EC50 [3] was > 120 µM (not active) and the EC50 [4] was > 120 µM (not active).

With `Nc1nc(S)nc2c1C1(CCCC1)Cc1ccccc1-2` the AC50 (Cytochrome P450 2C9) was 0.355 µM (inconclusive) and the AC50 (Cytochrome P450 2C19; read-out: AC50) was 11.2 µM (inconclusive).

In the case of `Cn1cccc1C(=O)N1CCC2(CCCN(C(=O)Nc3ccccc3)C2)CC1`, the AC50 (Cytochrome P450 3A4) is reported as 31.6 µM (inconclusive).

In the case of `Nc1cc(Cl)ccc1Oc1ccccc1`, the AC50 (Cytochrome P450 3A4) is reported as 22.4 µM (inconclusive).

For `CCC(C)n1c(SCC(=O)NC(=O)Nc2ccc3c(c2)OCCO3)nc2ccccc2c1=O` (stereo not drawn), the EC50 [6] was 2200 nM (active), the EC50 [7] was > 60 µM (not active) and the EC50 [1] was > 260 µM (inactive).

For `CCOC(=O)c1ccc(-c2c(-c3cc(OC)c(OC)c(OC)c3)noc2C)cc1F`, the EC50 [2] was 9.94 µM (inconclusive), the EC50 [3] was 1.43 µM (active) and the EC50 [4] was 11.4 µM (active).

In the case of `CCOC(=O)c1c(-c2ccc(C)cc2)cn2ccccc12`, the EC50 [1] is reported as > 260 µM (inactive).

In the case of `COc1ccc(OC)c(C2CC(=O)Nc3[nH]nc(-c4ccccc4)c32)c1` (stereo not drawn), the EC50 [2] is reported as > 120 µM (not active), the EC50 [3] is reported as > 120 µM (not active) and the EC50 [4] is reported as > 120 µM (not active).

For `CSCC[C@H](NC(=O)CC(C)(C)C)c1nc2ccccc2[nH]1`, the AC50 (Cytochrome P450 3A4) was 15.8 µM (inconclusive).

With `N#C/C(C(=O)NCc1ccccc1)=C1/N=C(NC(=O)c2ccco2)c2ccccc21` the EC50 [1] was > 260 µM (inactive).

With `COc1ccc(CN2CC(=O)N(c3ccc(C)c(C)c3)C2=S)cc1OC` the EC50 [2] was 21.3 µM (active), the EC50 [3] was 20.4 µM (active) and the EC50 [4] was > 120 µM (not active).
